Values quoted from earlier work, collected in US6717017B2, “Total synthesis of antitumor acylfulvenes” (The Regents of the University of California, priority 1996, dated 2004).

What was measured:
[1] = system: MV 522 metastatic lung carcinoma xenografts; settings: MV 522 metastatic lung carcinoma xenografts in nude mice
skin cancers = settings: in vivo

## CC1=C(CO)C2=C(C)C3(CC3)[C@@](C)(O)C(=O)C2=C1 [HMAF, hydroxymethylacylfulvene]
[1]
  tumor regression: complete tumor regression was observed in all animals
Breast (MX-1)
  activity against breast (MX-1) cancer: outstanding activity
Colon (HT-29)
  activity against colon (HT-29) cancer: outstanding activity
Skin cancers
  activity against skin cancers: outstanding activity
